# Columns and labels:
# lung elastin degradation = assay: D/I levels in plasma, urine and sputum of COPD patients before and after Tiotropium, by LC/MS; assay type: in vivo, human
# Method: The mass spectrometric method was used for direct measurement of D/I in urine, plasma and sputum as markers of elastin degradation in healthy controls, patients with α1-antitrypsin deficiency (AATD) and non-AATD-related COPD. Preparation of specimens of urine and sputum and measurements by mass spectrometry (LC/MS) were performed as previously described in Ma S, Lieberman S, Turino G M and Lin Y Y: The detection and quantitation of free desmosine and isodesmosine in human urine and their peptide-bound forms in sputum. PNAS 2003, 100:12941-12943, which is incorporated by reference as if recited in full herein. D and I standard (mixed 50% D and 50% I) were purchased from Elastin Products (Owensville, Mich.), and all other reagents were from Sigma (St. Louis, Mo.). MCX cation exchange cartridges (3 ml) were obtained from Waters (Milford, Mass.), and CF1 cellulose powders were purchased from Whatman (Clifton, N.J.).
# Urine samples. Twenty-four hour urine samples were collected and analyzed as previously described in Ma S, et al., 2003.
# Plasma samples. Plasma samples were obtained after centrifuging venous blood specimens at 2500 r.p.m. for 25 min. Samples were stored at −20 C until used. One ml of plasma and 1 ml of concentrated HCl (37%) were placed in a glass vial. After air in the sample was displaced with a stream of nitrogen, the sample was acid hydrolyzed for 24 hours in 6N HCl. After evaporation to dryness, the residue was dissolved in 2 ml of a mixed solution of n-butanol/acetic acid/6 N HCl (4:1:1, by volume). The sample solution was loaded onto a 3 ml CF1 cartridge. The CF1 cartridge was prepared by introducing 3 ml of the slurry of 5% CF1 cellulose powder in a mixture of n-butanol/acetic acid/water (4:1:1, by volume). The cartridge was washed 3 times with 3 ml of n-butanol/acetic acid/water mixture, and D and I adsorbed in the CF1 cartridge were eluted with 3 ml of water. The eluate was evaporated to dryness under vacuum at 45° C. and the residue was dissolved in 0.1 ml of HPLC mobile phase for LC/MS analysis. For analysis in plasma, samples were processed and measured in duplicate and the results averaged.
# Sputum Samples. Sputum samples were processed as previously described in Ma S, et al., 2003 with the following modification: The acid hydrolyzed samples were chromatographed using a CF1 cartridge as described in the treatment of plasma samples. Each sputum sample was processed and measured in duplicate and the results averaged. Sputum was obtained from 3-hour morning collections spontaneously produced. When subjects could not voluntarily produce sputum, sputum induction was induced by 3% saline inhalation for 20 minutes as previously described in Ma S, et al., 2003.
# COPD patients have elevated levels of D/I in plasma, urine and sputum, which might respond to prolonged bronchodilation. […] Other anticholinergic bronchodilators were stopped prior to TIO, and other therapies/disease treatments were unchanged for the two months of study. To these patients, 18 mcg TIO was administered each 24 hours. D/I in plasma, urine and sputum were measured by liquid chromatography and mass spectrometry (LC/MS) prior to the study and at one month and two months after the study.
# COPD patients = assay: Spirometry in post-TIO therapy patients; assay type: in vivo, human; conditions: most post-TIO therapy patients
# Method: COPD patients have elevated levels of D/I in plasma, urine and sputum, which might respond to prolonged bronchodilation. To determine if clinical effects of Tiotropium (TIO) affect tissue degradation of the lung in COPD, clinically stable patients with COPD (n=9) not on TIO prior to the study and at one month and a second month after initiating therapy were tested. Other anticholinergic bronchodilators were stopped prior to TIO, and other therapies/disease treatments were unchanged for the two months of study. To these patients, 18 mcg TIO was administered each 24 hours. D/I in plasma, urine and sputum were measured by liquid chromatography and mass spectrometry (LC/MS) prior to the study and at one month and two months after the study.
# The improvement in spirometric indices were usually concordant with levels of D/I in patients.
smiles,measurement,setting,value
C[N+]1(C)[C@@H]2C[C@@H](OC(=O)C(O)(c3cccs3)c3cccs3)C[C@H]1[C@@H]1O[C@@H]12 [Tiotropium],Significant decreases in D/I levels in plasma (patients showing decrease),"lung elastin degradation; COPD patients, 18 mcg TIO each 24 hours, one and two months, plasma, LC/MS",10 out of 12
same,Significant decreases in D/I levels in sputum (patients showing decrease),"lung elastin degradation; COPD patients, 18 mcg TIO each 24 hours, one and two months, sputum, LC/MS",all 12 patients
same,Significant decreases in D/I levels in urine (patients showing decrease),"lung elastin degradation; COPD patients, 18 mcg TIO each 24 hours, one and two months, urine, LC/MS",10 out of 12
same,"Calculated percentage decreases in D/I levels after TIO treatment, time course","lung elastin degradation; COPD patients, one month vs second month of TIO",decreases beginning after one month with further decreases observed in the second month
same,"D/I levels in plasma, urine and sputum after two months of treatment","lung elastin degradation; COPD patients, two months of TIO",significant reductions
same,"Lung elastin degradation, overall response from percent decreases in D/I levels","lung elastin degradation; all 12 COPD patients, prolonged TIO treatment",some decrease in lung elastin degradation
same,Force Vital Capacity (FVC),COPD patients,significant increase
same,Forced Expired Volume in 1 second (FEV1),COPD patients,significant increase
same,Residual Volume (RV),COPD patients,decreases
same,ratio of FEV1/FVC,COPD patients,significant increase
